According to the NIST ThermoML archive (doi:10.1016/j.fluid.2013.10.033):
Numbers after ± are expanded uncertainties.

Assays:
[1] = 298.15 K; 101.33 kPa; Liquid; Vibrating tube method
[2] = refractive index (Na D-line) (dimensionless); conditions: 298.15 K; 101.33 kPa; Liquid; Standard Abbe refractometry
[3] = xn = mol fraction of the nth substance listed; conditions: 298.15 K, 101 kPa, Liquid, Vibrating tube method

| Structure (SMILES) | mass density [1] [kg/m3] | refractive index [2] | other results |
| --- | --- | --- | --- |
| c1ccccc1 [benzene] | 873.57 ± 0.11 | 1.49774 ± 0.00068 | – |
| CCOS(=O)(=O)[O-].CC[n+]1ccccc1 [1-ethylpyridinium ethyl sulfate] + c1ccccc1 | – | – | mass density ([3]; x2 = 0.406): 1171.69 ± 1.6 kg/m3 |
| CCOS(=O)(=O)[O-].CC[n+]1ccccc1 [1-ethylpyridinium ethyl sulfate] | 1252 ± 0.4 | 1.50525 ± 0.0007 | – |
| C1CCCCC1 [cyclohexane] | 773.8 ± 0.13 | 1.4236 ± 0.00068 | – |
| C1=CCCCC1 [cyclohexene] | 805.69 ± 0.24 | 1.44378 ± 0.0007 | – |
| C1CCCCCCC1 [cyclooctane] | 831.47 ± 0.12 | 1.45598 ± 0.00068 | – |
| CCOS(=O)(=O)[O-].CC[n+]1ccccc1 [1-ethylpyridinium ethyl sulfate] + C1=CCCCC1 | – | – | mass density ([3]; x2 = 0.041): 1243.4 ± 1.8 kg/m3 |
| CCOS(=O)(=O)[O-].CC[n+]1ccccc1 [1-ethylpyridinium ethyl sulfate] + CC1CCCCC1 | – | – | mass density ([3]; x2 = 0.013): 1248.79 ± 1.7 kg/m3 |
| CCOS(=O)(=O)[O-].CC[n+]1ccccc1 [1-ethylpyridinium ethyl sulfate] + C1CCCCCCC1 | – | – | mass density ([3]; x2 = 0.009): 1249.15 ± 1.2 kg/m3 |
| CC1CCCCC1 [methylcyclohexane] | 765.02 ± 0.24 | 1.42062 ± 0.0007 | – |
| CCOS(=O)(=O)[O-].CC[n+]1ccccc1 [1-ethylpyridinium ethyl sulfate] + C1CCCCC1 | – | – | mass density ([3]; x2 = 0.017): 1247.74 ± 1.8 kg/m3 |
